Results from PMC12124858, “Thymoquinone loaded on chitosan nanoparticles alleviated the consequences of cryptosporidiosis infection in a murine model: Evidence from parasitological, histopathological, immunohistochemical, and immunological studies” (PLOS One, 2025).
Marks after values point to notes of the source that are not given here.

Legend:
[1] = In vitro release study, dialysis method; format: physicochemical; conditions: PBS pH 6.8, 37°C, after 12 hours
Description: The THQ release profile from […] […] Briefly, 3 mL of the […] suspension was placed in a dialysis bag (M.W. 12 kDa, Sigma-Aldrich). Each sealed dialysis bag was immersed in 50 mL of PBS (pH 6.8) in a shaking incubator at 37 ± 0.5°C and 100 rpm. Samples were withdrawn from the release medium at specified intervals and replaced with fresh buffer to maintain sink conditions. […] As a control, the release of free THQ and free NTZ was measured under the same conditions. All measurements were performed in triplicate.

Cryptosporidium parvum [2] = assay: Oocyst shedding in immunosuppressed infected mice; format: in vivo, Swiss albino mice
Description: Animals: The study was conducted following approval by the Research Ethics Committee of Zagazig University, Institutional Animal Care and Use Committee (ZU-IACUC), under protocol number ZU-IACUC/2/F/53/2024, following the National Institutes of Health guidelines for animal experimentation. Seventy male laboratory-bred Swiss albino mice free of parasites were included in this study. The mice weighed 20-25 grams at the start of the trial and were between four and six weeks old. They were purchased from the Biological Supply Center of the Theodor Bilharz Research Institute (TBRI). Throughout the trial, the mice were housed in an air-conditioned animal facility maintained at 20-22°C and were provided with a standard commercial pelleted diet and free access to water. […] Immunosuppression: The mice were subjected to immunosuppression by administering dexamethasone (Dexazone, […] Pharmaceuticals, Cairo, Egypt) orally through an esophageal tube at a rate of 0.25 μg/g/day for 14 consecutive days before being inoculated with C. parvum oocysts. Throughout the experiment, the mice received the same dosage of dexamethasone. The infection: In a previous study, we isolated Cryptosporidium oocysts from diarrheal calves and genetically identified them as C. parvum. The 2.5% potassium dichromate solution containing purified oocysts was stored at 4°C until needed. After preparing an infectious inoculum and counting the number of oocysts in the concentrated stock inoculum, the fluid volume of the inoculum per mouse was determined. Oral-gastric gavage was used to infect each mouse orally with C. parvum oocysts. Approximately 3 × 10^3 oocysts/mouse were used to infect each mouse at 0 days post-infection (dpi). […] Thymoquinone loaded on chitosan nanoparticles was given at the same dose for Group VII. Chitosan was administered at 200 mg/kg three times a week, starting at seven dpi for 2 weeks for Group III [36]. Assessments of the drug therapy: Parasitological examination: The mice feces were collected at 7, 14, and 21 dpi. For the oocyst shedding assessment, the number of Cryptosporidium oocysts in the fecal pellets was counted after staining with Kinyoun's acid-fast stain. Fecal samples were collected from each infected mouse. The mean number of oocysts was calculated for each mouse group. After weighing, a milligram of the fecal pellet was placed in 1 milliliter of 10% formalin. Centrifugation concentrated the fecal solution for ten minutes at 7000 rpm. The number of oocysts in one milliliter of the feces sample was calculated using 100 μl of fecal material dried, stained, and observed through an oil immersion lens (x100). The oocyst count was detected and expressed per gram of feces. The effectiveness of each drug was assessed according to [35] and represented as a percentage of reduction using the following formula: Efficacy(%)=100×((infected model group oocyst count-treated model group oocyst count)/(infected model group oocyst count)) %Inhibition = [(mean oocyst count in the infected untreated group - mean oocyst count in the infected treated group)/mean oocyst count in the infected untreated group] × 100

Cryptosporidium parvum [3] = assay: Histopathological examination and scores of the intestine (H&E); format: in vivo, Swiss albino mice; conditions: 21 dpi
Description: At 21 dpi, the mice were humanely euthanized under light anesthesia induced by isoflurane inhalation (Forane®, Baxter, UK). Representative tissue specimens from all animals’ intestines, livers, and spleens were carefully collected and fixed in a 10% neutral buffered formalin solution for 48 hours. Following fixation, the tissues were dehydrated through a graded series of ethyl alcohol concentrations, cleared in xylene, and subsequently embedded in paraffin wax. Two sections, each 5 µm thick, were obtained from each tissue specimen. The sections were then deparaffinized in xylene and rehydrated through a descending series of alcohol concentrations. After rehydration, the tissue sections were mounted onto histological slides and stained with hematoxylin and eosin (H&E) for microscopic examination. The prepared slides were thoroughly analyzed under a light microscope to identify pathological alterations and evaluate the administered drug’s potential ameliorative effects. This standardized protocol ensured accurate and consistent histological assessment across all samples [39]. Histopathological scores for intestine: H&E-stained tissue sections of the intestine were evaluated in a blinded manner by assessing specific histological parameters, including mononuclear cell infiltration in the lamina propria, crypt hyperplasia, depletion or hyperplasia of goblet cells, and alterations in mucosal histoarchitecture. A systematic scoring approach was employed to quantify these histological changes. Histological alterations were counted in 50 randomly selected microscopic fields (captured images; 40 × objective) from each mouse within each experimental group. This method ensured a comprehensive and unbiased assessment of intestinal pathology across all samples [40].

Cryptosporidium parvum [4] = assay: Histopathological examination of the liver (H&E); format: in vivo, Swiss albino mice; conditions: 21 dpi, in words
Description: (§1) At 21 dpi, the mice were humanely euthanized under light anesthesia induced by isoflurane inhalation (Forane®, Baxter, UK). Representative tissue specimens from all animals’ intestines, livers, and spleens were carefully collected and fixed in a 10% neutral buffered formalin solution for 48 hours. Following fixation, the tissues were dehydrated through a graded series of ethyl alcohol concentrations, cleared in xylene, and subsequently embedded in paraffin wax. Two sections, each 5 µm thick, were obtained from each tissue specimen. The sections were then deparaffinized in xylene and rehydrated through a descending series of alcohol concentrations. After rehydration, the tissue sections were mounted onto histological slides and stained with hematoxylin and eosin (H&E) for microscopic examination. The prepared slides were thoroughly analyzed under a light microscope to identify pathological alterations and evaluate the administered drug’s potential ameliorative effects. This standardized protocol ensured accurate and consistent histological assessment across all samples [39].

Cryptosporidium parvum [5] = assay: Histopathological examination of the spleen (H&E); format: in vivo, Swiss albino mice; conditions: 21 dpi, in words
Description: as §1

cyclin D1 = assay: Immunohistochemical staining of cyclin D1 in the intestine; format: in vivo, Swiss albino mice; conditions: 21 dpi, in words
Description: Immunohistochemical examination for detecting intestinal dysplasia using cyclin D1 marker: Three to five-micrometer intestinal tissue sections were deparaffinized using xylene and rehydrated using varying degrees of alcohol. Next, peroxidase activity was blocked using 3% hydrogen peroxide. The Dako target retrieval solution (pH 6.0) was applied for twenty minutes. The sections were treated for one hour with the primary antibody (Anti-Cyclin D1 antibody [SP4], ab 16663, Abcam, UK, diluted 1/100 in PBS). Antibody binding was identified using Dako’s HRP Envision Kit (Dako Cytomation, Denmark).

IFN-γ = assay: Serum IFN-γ by ELISA; format: in vivo, Swiss albino mice
Description: (§2) Immunological measurements: Interleukin-10 (IL-10) and interferon-gamma (IFN-γ) levels in mouse sera were measured. Blood samples were collected in plain tubes from the mice’s retroorbital veins at the indicated time points (14 dpi and 21 dpi). After 30 minutes at room temperature and 15 minutes of centrifugation at 3000 rpm, sera were collected and stored at −20°C. Using an ELISA kit and following the manufacturer’s instructions, the enzyme-linked immunosorbent assay (ELISA) was employed to measure the levels of IFN-γ and IL-10 in the serum (Bioneovan Co.; Ltd, Beijing, China).

IL-10 = assay: Serum IL-10 by ELISA; format: in vivo, Swiss albino mice
Description: as §2

[6] = Pharmacokinetic study after oral administration; format: in vivo, Wistar albino rats; conditions: rats, oral 20 mg/kg
Description: All groups received an oral dose of 20 mg/kg of their respective formulations. Blood samples (500 μL) were collected from the ocular vein into heparinized tubes at intervals of 0.5, 1, 2, 4, 6, 8, 12, and 24 hours post-administration. The samples were centrifuged at 10,000 rpm for 5 min to isolate plasma stored at −20°C. Plasma samples were deproteinized by adding 1 mL of acetonitrile to each sample, followed by vortexing for 10 min and centrifugation at 6,000 rpm for another 10 min. […] Pharmacokinetic parameters such as peak plasma concentration (Cmax), time to reach peak concentration (Tmax), mean residence time (MRT), area under the curve (AUC), elimination rate constant (Kel), and plasma half-life (t1/2) were calculated using PK Solver 2.0 software through non-compartmental analysis.

L. donovani = test system: L. donovani; set-up: method as in Islamuddin et al. [22]; conditions: in words; ref Islamuddin et al. [22]; cited from earlier work
[7] = Wistar albino, rat, plasma, n = 6

CC1=CC(=O)C(C(C)C)=CC1=O [THQ, 2-isopropyl-5-methyl-1,4-benzoquinone]
drug release [1]: 100% | Count of Cryptosporidium oocysts per gram stool, Mean ± SE (Cryptosporidium parvum [2]; 7th day PI (start of treatment), immunosuppressed mice, oral): 300 ± 3.1 ^Aa x10^3 per gram stool | I % (percent inhibition of oocyst count) (Cryptosporidium parvum [2]; 14th day PI, versus infected untreated group): 75% | Count of Cryptosporidium oocysts per gram stool, Mean ± SE (Cryptosporidium parvum [2]; 14th day PI, NTZ forms 100 mg/kg/day 5 days, THQ forms and CsNPs 200 mg/kg three times a week, oral from 7 dpi): 78 ± 1.5 ^Bd x10^3 per gram stool | I% (percent inhibition of oocyst count, effectiveness) (Cryptosporidium parvum [2]; 21th day PI, versus infected untreated group): 77% | Count of Cryptosporidium oocysts per gram stool, Mean ± SE (Cryptosporidium parvum [2]; 21th day PI, NTZ forms 100 mg/kg/day 5 days, THQ forms and CsNPs 200 mg/kg three times a week, oral from 7 dpi): 72 ± 2.6 ^Cd x10^3 per gram stool | Intestinal histopathological findings (Cryptosporidium parvum [3]; H&E, in words): greater improvement than the NTZ-treated group | Morphometric indices: Villus width (Cryptosporidium parvum [3]; intestine): 91.4^A | Lesion frequency: Epithelial necrosis (Cryptosporidium parvum [3]; intestine, mean ± SE): 7.5 ± 0.43^B | Lesion frequency: Goblet cell hyperplasia (Cryptosporidium parvum [3]; intestine, mean ± SE): 20.67 ± 0.49^BC | Lesion frequency: Mucosal erosion (Cryptosporidium parvum [3]; intestine, mean ± SE): 14.83 ± 0.65^B | Lesion frequency: Mucosal ulceration (Cryptosporidium parvum [3]; intestine, mean ± SE): 8.83 ± 0.48^B | Lesion frequency: Mucosal-associated lymphocyte hyperplasia (Cryptosporidium parvum [3]; intestine, mean ± SE): 22 ± 0.68^C | Lesion frequency: Vascular congestion (Cryptosporidium parvum [3]; intestine, mean ± SE): 18.5 ± 0.85^B | Lesion frequency: Villus atrophy (Cryptosporidium parvum [3]; intestine, mean ± SE): 9.83 ± 0.87^B | Lesion frequency: Villus fusion (Cryptosporidium parvum [3]; intestine, mean ± SE): 4.83 ± 0.17^B | Morphometric indices: Crypt depth (Cryptosporidium parvum [3]; intestine, mean ± SE): 79.7 ± 0.22^AB | Morphometric indices: Thickness of lamina propria (Cryptosporidium parvum [3]; intestine, mean ± SE): 170.33 ± 1.15^BC | Morphometric indices: Thickness of muscular layer per image (Cryptosporidium parvum [3]; intestine, mean ± SE): 64.35 ± 0.2^C | Morphometric indices: Villus height (Cryptosporidium parvum [3]; intestine, mean ± SE): 302 ± 2.35^C | Morphometric indices: Villus surface area (Cryptosporidium parvum [3]; intestine, mean ± SE): 27975.53 ± 357.01^C | Liver histopathological findings (Cryptosporidium parvum [4]): partial improvement | Spleen histopathological findings (Cryptosporidium parvum [5]): partial improvement with mild hyperplasia of lymphoid elements | cyclin D1 immunostaining of the intestine (cyclin D1): Moderate immunostaining | IFN-γ serum level, Mean ± SE (IFN-γ; 14 days post-infection): 36.8 ± 1.5 ^b | IFN-γ serum level, Mean ± SE (IFN-γ; 21 days post-infection): 29.3 ± 0.6 ^ab | IL-10 serum level, Mean ± SE (IL-10; 14 days post-infection): 18.5 ± 0.6^bc | IL-10 serum level, Mean ± SE (IL-10; 21 days post-infection): 33.3 ± 0.4 ^bc | concentration at 0.5 h ([6]; Wistar albino, rat, plasma, 0.5 hours): 9.79 ± 3.25 µg/mL | concentration at 12 h ([6]; Wistar albino, rat, plasma, 12 hours): 4.88 ± 1.79 µg/mL | concentration at 24 h ([6]; Wistar albino, rat, plasma, 24 hours): 4.19 ± 1.58 µg/mL | AUC [6, 7]: 340 ± 13.6 µg·h/mL | AUC(0-inf) [6, 7]: 630 ± 22.1 µg·h/mL | Cmax [6, 7]: 43.6 ± 7.92 µg/mL | MRT [6, 7]: 6.97 ± 1.32 h | Tmax [6, 7]: 4 h | AUC(0-t) ([6]; Wistar albino, rat, plasma, n = 6, read-out: AUC₀ → 24): 316 ± 12.5 µg·h/mL | half-life ([6]; Wistar albino, rat, plasma, n = 6, read-out: T1/₂ (converted)): 53.2 ± 4.88 h | Kel ([6]; n = 6): 0.013 ± 0.0012 h˦ ¹ | leishmanicidal activity (L. donovani): significant leishmanicidal activity
